Values joined by “and” are separate entries in the source; they are usually repeats but may differ in a detail not shown here. Equal entries are not always repeated.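 Values below derive from 48-hour exposures of cells grown in 96-well plates, with endpoints linearly interpolated between the two concentrations bracketing the appropriate inhibition level. GI50 = concentration required for 50% inhibition of growth. At the TGI there is no net growth.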
Tests used:
Assay in all cases: NCI anticancer screen, dose series, 48 h
ACHN renal = tested on: ACHN renal
HS 578T breast = tested on: HS 578T breast
LOX IMVI melanoma = tested on: LOX IMVI melanoma
MDA-MB-435 = tested on: MDA-MB-435
NCI/ADR-RES ovarian = tested on: NCI/ADR-RES ovarian
PC-3 prostate = tested on: PC-3 prostate
SF-268 CNS = tested on: SF-268 CNS
SF-295 CNS = tested on: SF-295 CNS
SK-MEL-2 melanoma = tested on: SK-MEL-2 melanoma
SW-620 colon = tested on: SW-620 colon

Row | Structure (SMILES) | GI50 (ACHN renal) [µM] | TGI (ACHN renal) | GI50 (HS 578T breast) [µM] | TGI (HS 578T breast) | GI50 (LOX IMVI melanoma) [µM] | TGI (LOX IMVI melanoma) [µM] | GI50 (MDA-MB-435) [µM] | TGI (MDA-MB-435) [µM] | GI50 (NCI/ADR-RES ovarian) [µM] | TGI (NCI/ADR-RES ovarian) [µM] | GI50 (PC-3 prostate) [µM] | TGI (PC-3 prostate) [µM] | GI50 (SF-268 CNS) [µM] | TGI (SF-268 CNS) [µM] | GI50 (SF-295 CNS) [µM] | TGI (SF-295 CNS) | GI50 (SK-MEL-2 melanoma) [µM] | TGI (SK-MEL-2 melanoma) [µM] | GI50 (SW-620 colon) [µM] | TGI (SW-620 colon) [µM]
1 | O=c1[nH]ccc2nc(-c3ccc(CN4CCC(c5nc(-c6ccccn6)n[nH]5)CC4)cc3)c(-c3ccccc3)cc12 | 21.2 | > 100 µM | 0.592 | 16.5 µM | 19.3 | > 94.2 | 17.4 | > 100 | 36.7 | > 100 | 0.153 | > 100 | 25.9 | > 100 | 1.11 | 19.9 µM | 14.7 | 38 | 42.3 | > 100
2 | O=C1/C(=C/c2ccc(Cl)cc2)CN(Cc2cn(CCNc3ccnc4cc(Cl)ccc34)nn2)C/C1=C\c1ccc(Cl)cc1 | 0.391 | 1.21 µM | 0.724 | 13.5 µM | 0.189 | 0.35 | 0.326 | 1.08 | 0.406 | 2.24 | 0.26 | 0.776 | 0.27 | 0.786 | 0.222 | 0.541 µM | 1.88 | 3.4 | 0.275 | 0.83
3 | N#Cc1c(-c2ccc(Cl)cc2)c(-c2ccc(Cl)cc2)nn(CCOC(=O)CCC(=O)O)c1=O | – | > 100 µM | – | 59.7 µM | – | > 84.3 | – | 0.193 | – | > 12.9 | – | > 48.4 | – | > 72.1 | – | 16.9 µM | – | 28.2 | – | > 100
4 | CO/N=C(\COc1ccc2c(c1)oc(=O)c1cc(OC)ccc12)c1ccc(F)cc1 | 16.8 | 32.1 µM | 29.9 | > 100 µM | 26 | 72.9 | 66.1 | > 100 | 17.6 | 35.6 | 20.9 | 66.5 | 29.9 | > 100 | 24.1 | 87.5 µM | 23.1 | 72.8 | 34.8 | > 100
5 | COc1cc2c3c(n(CCCNC(=O)OCC4c5ccccc5-c5ccccc54)c(=O)c2cc1OC)-c1cc2c(cc1C3=O)OCO2 | 0.376 | 6.25 µM | 22.8 | > 100 µM | 1.48 | > 37.1 | > 100 | > 100 | > 100 | > 100 | > 100 | > 100 | 16.6 | > 72.4 | 0.751 | > 100 µM | 45.5 | > 100 | > 100 | > 100
6 | Cn1c(=O)c2[nH]c(C3CC(=O)CC(c4nc5c([nH]4)c(=O)n(C)c(=O)n5C)N3)nc2n(C)c1=O (stereo unspecified) | – | > 100 µM | – | > 100 µM | – | > 100 | – | > 100 | – | > 100 | – | > 100 | – | > 100 | – | > 100 µM | – | > 100 | – | > 100
7 | N#CCC12CC=CCC1=C(O)C(=O)c1ccc(O)cc12 (stereo unspecified) | – | > 100 µM | – | > 100 µM | – | > 100 | – | > 100 | – | > 100 | – | > 100 | – | > 100 | – | > 100 µM | – | > 100 | – | > 100
8 | CC(C)(C)c1cn2cccc(C(=O)N3CCN(CC(=O)Nc4ccc(Cl)cc4C(=O)c4ccccc4Cl)CC3)c2n1 | 6.62 | 61.4 µM | 4.72 | 19.9 µM | 11 | 23.9 | 6.39 | 21.6 | 6.7 | > 100 | 2.35 | 6.88 | 13 | 43.6 | 4.05 | 7.18 µM | 5 | 33.6 | 7.81 | 29.1
9 | NC(N)=N/N=C(/c1ccccc1)c1ccc(Cl)cc1 | 40.6 | > 100 µM | 8.57 | 51.7 µM | 18.4 | > 100 | 2.74 | 9.27 | 24.4 | 85.9 | 3.84 | > 100 | 8.44 | > 100 | 10.3 | > 100 µM | > 100 | > 100 | 3.93 | > 100
10 | c1ccc2c(-c3nc4ccccc4[nH]3)cccc2c1 | 7.97 | > 100 µM | 2.49 | 17.2 µM | 7.11 | > 100 | 0.309 | 1.44 | 1.8 | > 100 | 3.88 | > 100 | 5.62 | > 100 | 2.98 | 29.1 µM | 2.15 | 8.68 | 1.91 | 53.8
11 | COc1cc(Nc2ncc3c(C)nc(-c4cccc(Oc5ccccc5)c4)n3n2)cc(OC)c1OC | 1.33 | 17.9 µM | 7.51 | > 25 µM | 3.57 | > 15.5 | 6.26 | > 25 | 6.36 | > 25 | 5.1 | 24.6 | 6.6 | > 22.7 | 7.2 | > 25 µM | 2.58 | 9.71 | 9.61 | > 25
12 | CNc1cccnc1/C=N/NC(N)=S | – | 1.76 µM | – | > 10 µM | – | > 10 | – | > 10 | – | 9.94 | – | > 10 | – | > 10 | – | 5.71 µM | – | > 10 | – | > 10
13 | CS(=O)(=O)Nc1cccc(-c2ccc3c(NC(=O)C4CC4)n[nH]c3c2)c1 | 12.7 | > 25 µM | 2.22 | > 25 µM | 1.82 | > 25 | 0.165 | 0.944 | 6.45 | > 25 | 3.24 | > 25 | 2.78 | > 25 | 5.65 | > 25 µM | 1.37 | > 25 | 2.14 | > 25
14 | O=C(Nc1cccc([N+](=O)[O-])c1)c1ccc2ccccc2c1O | 12.2 | > 95.4 µM | 2.91 | > 28.4 µM | 9.94 | > 100 | 3.47 | > 100 | 5.62 | > 86.5 | 3.87 | > 80.7 | 7.72 | > 100 | 3.47 | > 82.8 µM | 3.18 | 16.1 | 6.8 | > 100
15 | CCCC(=O)Nc1cc([N+](=O)[O-])c([N+](=O)[O-])cc1OC | – | 26.5 µM | – | 46.5 µM | – | > 100 | – | 33.3 | – | > 100 | – | > 100 | – | 34.6 | – | 21.7 µM | – | 41.6 | – | 89.9
16 | CCCCCCCCCCCCCCCCOC(=O)c1c(C)[nH]c(/C=C2\N=C(c3ccc[nH]3)C=C2OC)c1C | 1.65 | 14.9 µM | 1.41 | 9.38 µM | 0.0346 | 0.144 | 0.307 | > 100 | 0.735 | 19.9 | 0.162 | > 100 | 1.99 | 19.6 | 2.7 | 11 µM | 0.249 | 1.34 | 0.182 | > 100
17 | Cc1cc(O)ccc1O | 15.7 | 29.1 µM | 26.7 | > 100 µM | 13.7 | 27.4 | 17.8 | 36.6 | 23.5 | > 100 | 32.8 | > 100 | 35.3 | > 100 | 34.9 | > 100 µM | > 100 | > 100 | 20.7 | 38.6
18 | C/C1=C\CC[C@@]2(C)O[C@@H]2C[C@@H]2[C@H](C/C(C)=C/CC1)OC(=O)C21CCN=N1 (stereo partly specified) | > 100 | 75 µM and > 100 µM | > 100 | 75 µM and > 100 µM | – | 75 | > 100 | > 100 | > 100 | > 100 | > 100 | > 100 | > 100 | > 100 | > 100 | 75 µM and > 100 µM | > 100 | > 100 | > 100 | > 100
19 | Oc1ccc2ccccc2c1C(c1ccc(Cl)cc1)c1c(O)ccc2ccccc12 | – | 15.4 µM | – | 8.62 µM | – | 8.11 | – | 9.49 | – | 9.46 | – | 7.7 | – | 7.26 | – | 12.7 µM | – | 6.71 | – | 18.4
20 | COc1ccc(Cn2cc3c(c2-c2ccc(O)cc2)CCc2cnoc2-3)cc1 | 0.956 | 19.5 µM | 0.252 | 6.62 µM | 0.713 | 18.8 | 0.0737 | 0.365 | 0.19 | 0.946 | 0.653 | 44.5 | 0.784 | 18.5 | 0.225 | 2.49 µM | 0.379 | 20.2 | 0.295 | 15.9
21 | C=C(C)[C@@H]1CC[C@]2(C(=O)O)CC[C@]3(C)[C@H](CC[C@@H]4[C@@]5(C)C[C@@H](CC#Cc6ccc(Br)cc6)C(=O)C(C)(C)[C@@H]5CC[C@]43C)[C@@H]12 | 13.5 | > 100 µM | 6.26 | > 100 µM | 5.65 | > 100 | 4.94 | > 100 | 62.6 | > 100 | 3.31 | 15.2 | 6.23 | > 100 | 12.6 | 81.1 µM | 2.58 | 9.48 | 3.73 | > 100
22 | CC(C)=CC(O)C/C(C)=C/CC/C(C)=C/CCC1(C)C(CCCO)/C(=C(/C)C=O)CCC1(C)O (stereo unspecified) | – | 43.6 µM | – | > 100 µM | – | > 100 | – | > 100 | – | > 100 | – | > 100 | – | > 100 | – | > 100 µM | – | > 100 | – | > 100
23 | N#Cc1c(NC(=O)c2cccc3ccccc23)sc2c1CCCC2 | 0.34 | > 25 µM | 0.0156 | – | 0.0625 | > 25 | 0.00636 | 0.0193 | 0.0128 | 0.117 | 0.079 | > 25 | 0.171 | > 25 | 0.0109 | > 25 µM | 0.137 | > 25 | 0.0245 | > 25
24 | O=C(Nc1cccnc1)c1cccc([N+](=O)[O-])c1 | > 100 | > 100 µM | > 100 | > 100 µM | > 100 | > 100 | > 100 | > 100 | > 100 | > 100 | > 100 | > 100 | > 100 | > 100 | > 100 | > 100 µM | > 100 | > 100 | > 100 | > 100
25 | COc1cc2c3c(n(CCCCNC(=O)OCC4c5ccccc5-c5ccccc54)c(=O)c2cc1OC)-c1cc2c(cc1C3=O)OCO2 | 5.8 | 50.4 µM | 80.7 | > 100 µM | 7.08 | > 100 | 64.9 | > 100 | 58.1 | > 100 | 13.7 | 55.6 | 6.7 | > 100 | > 100 | > 100 µM | 70.4 | > 100 | 7.75 | > 100
26 | COc1ccc2c(c1)C(=O)/C(=C/c1ccc([N+](=O)[O-])s1)O2 | 0.263 | 0.722 µM | 0.269 | – | 0.256 | 0.637 | 0.314 | 1.76 | 0.873 | > 100 | 0.283 | – | 0.268 | 0.66 | 2.95 | 9.61 µM | 0.325 | 0.875 | 0.211 | 0.507
27 | Cc1ccc(/C=C/C(=O)c2ccc(N)cc2)c(C)c1 | 1.77 | 3.2 µM | 18.2 | 80 µM | 0.321 | 1.18 | 4.01 | 15.5 | 6.65 | > 100 | 14.6 | 28.2 | 1.88 | 3.7 | 19.8 | 40.2 µM | 14 | 28.4 | 1.92 | 3.88

Source: PubChem BioAssay (NCI)
